{"source": "patent US7790762B2", "about": "“Compounds and methods for thiol-containing compound efflux and cancer treatment” (National Jewish Health, priority 2002, dated 2010)", "type_in_all_cases": "cell-based, human", "key": {"A549 cells [1]": {"test_system": "A549 cells", "test": "Intracellular GSH levels by HPLC-EC in A549 cells", "settings": "for activity at 25 µM: Homo sapiens; for effect on intracellular GSH (words): A549 cells", "method": "(§1) Cell lines and culture conditions. Human lung epithelial cancer (A549), human leukemia HL-60 and human prostate (PC-3) tumor cells were purchased from ATCC (Manassas, Va.). A549 and PC-3 cells were grown in Ham's F12 medium (F12) and Kaighn's modification of Ham's F12 medium (F12K) with 2 mM L-glutamine (ATCC), respectively, supplemented with 10% fetal bovine serum (FBS) and 5% pen/strep (10,000 unit, Cellgro). HL-60 cells were grown in Iscove's modified Dulbecco's medium with 4 mM L-glutamine (ATCC) supplemented with 20% FBS and 5% pen/strep. Cell were grown in T-75 flask at 37° C. and 5% CO2 air atmosphere and in 24-well plates for GSH levels and LDH release measurements.\n(§2) Intracellular levels of GSH. Intracellular GSH levels can be determined by HPLC-EC. Cultured cells from 24-well plates were washed once with 1 ml of PBS and then re-suspended in 0.5 ml of distilled water with 40 μM of digitonin (2 mM stock solution in DMSO) for 30 min at room temperature. Then, 50 μl of 10% meta-phosphoric acid were added (1% final concentration), the samples were sonicated for 2 min, centrifuged at 20,000 g for 10 min, and 0.2 ml of supernatant placed in vials for HPLC analysis. […] The flow rate was […]. The retention time for GSH in these conditions was 7.5 min. The HPLC instrument was from ESA, Inc. (Chelmsford, Mass.), equipped with an autosampler (model 540) and a Coul array detector (model 5600A). The potential applied was +0.75 V vs. H/Pd electrode, and the injection volume 5 μl."}, "PC-3 cells [2]": {"test_system": "PC-3 cells", "test": "Cytotoxicity as LDH release in PC-3 cells", "settings": "PC-3, 50 μM, 48 hours treatment", "method": "as §1\n(§3) Assessment of cytotoxicity. In one exemplary method, membrane integrity of A549, HL-60 and PC-3 cells was used as an index of drug-induced cytotoxicity, and was assessed by monitoring the release of cytosolic lactate dehydrogenase (LDH). LDH activity was measured in the culture medium and cell lysates (50 mM HEPES, Triton X-100 0.5%, pH 7) using a plate reader format as previously described (41). Briefly, 5 μl of cell culture supernatant and lysates were incubated with 0.24 mM NADH in a Tris/NaCl pH 7.2 buffer in 96-well plates for 5 min at 25° C. The reaction was started by the addition of 9.8 mM pyruvate and the consumption of NADH followed at 340 nm for 5 min at 30° C. Percent LDH release was calculated by the following: (supernatant LDH/supernatant LDH+lysate LDH)×100."}, "PC-3 cells [3]": {"test_system": "PC-3 cells", "test": "Intracellular GSH levels by HPLC-EC in PC-3 cells", "method": "as §1, §2"}, "HL-60 cells [4]": {"test_system": "HL-60 cells", "test": "Intracellular GSH levels by HPLC-EC in HL-60 cells", "settings": "for Int. GSH % con.: HL-60, 25 μM", "method": "as §1, §2"}, "A549 cells [5]": {"test_system": "A549 cells", "test": "Cytotoxicity as LDH release in A549 cells", "method": "as §1, §3"}, "HL-60 cells [6]": {"test_system": "HL-60 cells", "test": "Cytotoxicity as LDH release in HL-60 cells", "settings": "48 hours treatment", "method": "as §1, §3"}, "[7]": {"settings": "A549, 25 μM, 2 h, read-out: Intracellular GSH levels, % compared to control"}, "[8]": {"settings": "A549, 25 μM, 4 h, read-out: Intracellular GSH levels, % compared to control"}, "[9]": {"settings": "PC-3, 25 μM, 24 hours treatment"}, "[10]": {"settings": "A549, 75 μM, 48 hours treatment"}, "[11]": {"settings": "A549, 25 μM, 24 hours treatment"}}, "note": "Read-outs that look alike come from different tables or passages of the source."}
{"smiles": "O=C(/C=C/c1ccccc1O)c1ccccc1", "note": "[2-HC, 2-hydroxychalcone]", "values": [{"measurement": "activity at 25 µM", "setting": "A549 cells [1]; [7]", "result": "< 5", "unit": "%"}, {"measurement": "activity at 25 µM", "setting": "A549 cells [1]; [8]", "result": "< 5", "unit": "%"}]}
{"smiles": "C[C@]12CC[C@@H]3c4cc(O)c(O)cc4CC[C@H]3[C@@H]1CC[C@@H]2O", "note": "[2-HE, 2-hydroxyestradiol, reference compound]", "values": [{"measurement": "LDH rel. % con.", "setting": "PC-3 cells [2]", "result": 113, "unit": "% con."}, {"measurement": "Int. GSH % con.", "setting": "PC-3 cells [3]; [9]", "result": 228, "unit": "% con."}, {"measurement": "Int. GSH % con.", "setting": "HL-60 cells [4]; 24 hours treatment", "result": 120, "unit": "% con."}, {"measurement": "LDH rel. % con.", "setting": "A549 cells [5]; [10]", "result": 150, "unit": "% con."}, {"measurement": "Intracellular GSH levels, % compared to control", "setting": "A549 cells [1]; A549, 25 μM, 2 h", "result": "69.0 ± 0.5", "unit": "%"}, {"measurement": "Int. GSH % con.", "setting": "A549 cells [1]; [11]", "result": "<5", "unit": "% con."}, {"measurement": "LDH rel. % con.", "setting": "HL-60 cells [6]; HL-60, 25 μM", "result": 250, "unit": "% con."}]}
{"smiles": "COc1cc2c(cc1O)CC[C@@H]1[C@@H]2CC[C@]2(C)[C@@H](O)CC[C@@H]12", "note": "[2-ME, 2-methoxyestradiol, reference compound]", "values": [{"measurement": "LDH rel. % con.", "setting": "PC-3 cells [2]", "result": 128, "unit": "% con."}, {"measurement": "Int. GSH % con.", "setting": "PC-3 cells [3]; [9]", "result": 68, "unit": "% con."}, {"measurement": "Int. GSH % con.", "setting": "HL-60 cells [4]; 24 hours treatment", "result": 41, "unit": "% con."}, {"measurement": "LDH rel. % con.", "setting": "A549 cells [5]; [10]", "result": 150, "unit": "% con."}, {"measurement": "Int. GSH % con.", "setting": "A549 cells [1]; A549, 50 μM, 24 hours treatment", "result": 49, "unit": "% con."}, {"measurement": "LDH rel. % con.", "setting": "HL-60 cells [6]; HL-60, 25 μM", "result": 265, "unit": "% con."}]}
{"smiles": "O=C(/C=C/c1ccccc1O)c1ccccc1O", "note": "[2′,2-DHC, 2′ 2 dihydroxychalcone]", "values": [{"measurement": "Intracellular GSH levels, % compared to control", "setting": "A549 cells [1]; A549, 25 μM, 2 h", "result": "<5", "unit": "%"}, {"measurement": "Intracellular GSH levels, % compared to control", "setting": "A549 cells [1]; A549, 25 μM, 4 h", "result": "<5", "unit": "%"}]}
{"smiles": "O=C(/C=C/c1ccc(O)cc1)c1ccc(O)cc1O", "note": "[2′,4′,4-THC, 2′,4′,4 trihydroxychalcone]", "values": [{"measurement": "activity at 25 µM", "setting": "A549 cells [1]; [7]", "result": "6.8 ± 0.2", "unit": "%"}, {"measurement": "activity at 25 µM", "setting": "A549 cells [1]; [8]", "result": "< 5", "unit": "%"}]}
{"smiles": "O=C(/C=C/c1ccccc1)c1ccc(O)cc1O", "note": "[2′,4′-DHC, 2′ 4′ dihydroxychalcone]", "values": [{"measurement": "Intracellular GSH levels, % compared to control", "setting": "A549 cells [1]; A549, 25 μM, 2 h", "result": "22.0 ± 1.8", "unit": "%"}, {"measurement": "Intracellular GSH levels, % compared to control", "setting": "A549 cells [1]; A549, 25 μM, 4 h", "result": "<5", "unit": "%"}]}
{"smiles": "O=C(/C=C/c1ccccc1)c1cc(O)ccc1O", "note": "[2′,5′-DHC, 2′ 5′ dihydroxychalcone]", "values": [{"measurement": "LDH rel. % con.", "setting": "PC-3 cells [2]", "result": 246, "unit": "% con."}, {"measurement": "Int. GSH % con.", "setting": "PC-3 cells [3]; [9]", "result": 67, "unit": "% con."}, {"measurement": "Int. GSH % con.", "setting": "HL-60 cells [4]; 24 hours treatment", "result": "<5", "unit": "% con."}, {"measurement": "LDH rel. % con.", "setting": "A549 cells [5]; [10]", "result": 273, "unit": "% con."}, {"measurement": "effect on the toxicities of rotenone (50 μM), curcumin (50 μM) and 2-ME (50 μM)", "setting": "A549 cells [5]; A549 cells, 48 hours, compound 10 μM (FIG. 20D)", "result": "potentiated"}, {"measurement": "Intracellular GSH levels, % compared to control", "setting": "A549 cells [1]; A549, 25 μM, 2 h", "result": "<5", "unit": "%"}, {"measurement": "Intracellular GSH levels, % compared to control", "setting": "A549 cells [1]; A549, 25 μM, 4 h", "result": "<5", "unit": "%"}, {"measurement": "Int. GSH % con.", "setting": "A549 cells [1]; [11]", "result": "<5", "unit": "% con."}, {"measurement": "LDH rel. % con.", "setting": "HL-60 cells [6]; HL-60, 50 μM", "result": 310, "unit": "% con."}]}
{"smiles": "O=C(/C=C/c1ccc(O)cc1)c1ccccc1", "note": "[4-HC, 4-hydroxychalcone]", "values": [{"measurement": "activity at 25 µM", "setting": "A549 cells [1]; [7]", "result": "5.5 ± 0.4", "unit": "%"}, {"measurement": "activity at 25 µM", "setting": "A549 cells [1]; [8]", "result": "< 5", "unit": "%"}]}
{"smiles": "O=C(/C=C/c1ccccc1)c1ccc(O)cc1", "note": "[4′-HC, 4′-hydroxychalcone]", "values": [{"measurement": "intracellular GSH levels compared to control", "setting": "PC-3 cells [3]; PC-3 cells, 25 μM, 24 hours of treatment (FIG. 19B)", "result": 164, "unit": "%"}, {"measurement": "intracellular GSH levels compared to control", "setting": "HL-60 cells [4]; HL-60 cells, 25 μM, 24 hours of treatment (FIG. 19B)", "result": 215, "unit": "%"}, {"measurement": "activity at 25 µM", "setting": "A549 cells [1]; [7]", "result": "35.6 ± 2.9", "unit": "%"}, {"measurement": "activity at 25 µM", "setting": "A549 cells [1]; [8]", "result": "< 5", "unit": "%"}]}
{"smiles": "O=c1cc(-c2ccccc2)oc2cccc(O)c12", "note": "[5-HF, 5-hydroxyflavone]", "values": [{"measurement": "effect on intracellular GSH (words)", "setting": "A549 cells [1]", "result": "less effective"}, {"measurement": "activity at 25 µM", "setting": "A549 cells [1]; [8]", "result": "44.7 ± 3.4", "unit": "%"}]}
{"smiles": "O=c1cc(-c2ccccc2)oc2cc(O)ccc12", "note": "[7-HF, 7-Hydroxyflavone]", "values": [{"measurement": "LDH release, % of control at 50 µM", "setting": "PC-3 cells [2]; Homo sapiens, read-out: LDH rel. % con.", "result": 96, "unit": "%"}, {"measurement": "activity at 25 µM", "setting": "PC-3 cells [3]; Homo sapiens, PC-3, 25 μM, 24 hours treatment, read-out: Int. GSH % con.", "result": 63, "unit": "%"}, {"measurement": "activity at 50 µM", "setting": "HL-60 cells [4]; Homo sapiens, HL-60, 50 μM, 24 hours treatment, read-out: Int. GSH % con.", "result": 56, "unit": "%"}, {"measurement": "LDH release, % of control at 75 µM", "setting": "A549 cells [5]; Homo sapiens, A549, 75 μM, 48 hours treatment, read-out: LDH rel. % con.", "result": 113, "unit": "%"}, {"measurement": "effect on intracellular GSH (words)", "setting": "A549 cells [1]", "result": "almost as effective as chrysin"}, {"measurement": "activity at 25 µM", "setting": "A549 cells [1]; [7]", "result": "58.1 ± 1.4", "unit": "%"}, {"measurement": "activity at 25 µM", "setting": "A549 cells [1]; A549, 25 μM, 24 hours treatment, read-out: Int. GSH % con.", "result": "< 5", "unit": "%"}, {"measurement": "LDH release, % of control at 50 µM", "setting": "HL-60 cells [6]; Homo sapiens, HL-60, 50 μM, read-out: LDH rel. % con.", "result": 113, "unit": "%"}]}
